{
  "source": "patent US10213392B2",
  "about": "“Pharmaceutical composition for use in medical and veterinary ophthalmology” (Mitotech SA, priority 2009, dated 2019)",
  "key": {"[1]": {"assay": "Stability of SkQ1 in solutions containing benzalkonium chloride (storage 24 hours at room temperature, HPLC-MS/MS)", "format": "physicochemical", "conditions": "for Determined concentration of SkQ1 in 24 hours: 10 mM sodium phosphate pH 6.5, 0.9% NaCl", "experimental": "(§1) Materials and Method for Quantitative Detection of SkQ1\n(§2) Analysis is carried out by high-performance liquid chromatography with MS/MS detection.\n(§3) 100 μL of the internal standard solution is placed into a 10 ml flask, 5 ml of the water-ethanol solution is added and stirred for 11 min. 500 μL of sample solution is added to 0.1 ml of a 0.5 M solution of 3-chloroperbenzoic acid in ethanol, and the volume is adjusted to the mark with ethanol-water solution and stirred for 30 min. 1 ml of the resulting solution is transferred into a chromatographic vial.\n(§4) The chromatographic conditions are as follows: The device used is a Waters ACQUITY UPLC®. The column used is steel, 2.1×50 mm, filled with sorbent Acquity BEH C18, 1.7 μm (Waters, P/N 186002350) or equivalent. The column temperature is 35° C. The mobile phase is eluent A: 20 mM solution of formic acid in 5% aqueous acetonitrile and eluent B: 20 mM solution of formic acid in aqueous acetonitrile. The flow rate is 0.5 ml/min. The volume of injection is the total loop (about 11 μL). The elution mode is a gradient of eluents A and B according to Table 4.\n(§5) The time of the analysis is about 5 min. The detector is a Waters TQD (tri-quadrupole) for MS/MS.\n(§6) The conditions of detection is as follows: The electrospraying mode is positive (ES+). The working mode is monitoring of reactions of settled ions (MRM). The temperature of the ion source is 120° C. The vaporization temperature is 450° C. The cone voltage is 55 V. The capillary voltage is 3.0 kV. The collision gas (CID) is argon. The collision gas flow rate is 0.18 ml/min. The collision gas pressure (CID) is 4.5×10^−3 mbar. The transitions of scans and collision energy are according to Table 5.\n(§7) The SkQ1 content in the product (μg/ml) was calculated using the equation:\n(§8) [formula] • “S/Ssmpl” is the ratio of peak areas and SkQ1 and SkQ1-d15 in chromatograms of the sample solution; • “S/Sstd” is the ratio of SkQ1 and SkQ1-d15 peak areas in chromatograms of the SS solution; • “a” is the amount of SkQ1 taken to prepare the original standard solution, in mgs; • “W” is the water content and organic solvents in SkQ1 substance taken to prepare the original standard solution, in percent; and • “P” is the SkQ1 content in SkQ1 substance taken to prepare the original standard solution, in percent."}, "[2]": {"assay": "Stability of SkQ1 in solutions with different prolongators (storage 50 days at room temperature, HPLC-MS/MS)", "format": "physicochemical", "conditions": "for Relative content of SkQ1 after incubation for 50 days: 10 mM sodium phosphate pH 6.5, 0.9% NaCl, 0.01% benzalkonium chloride, room temperature", "experimental": "as §1, §2, §3, §4, §5, §6, §7, §8"}},
  "note": "“Also recorded” adds a separate entry of the source.",
  "data": [
    {"smiles": "Br.CC1=C(C)C(=O)C(CCCCCCCCCC[P+](c2ccccc2)(c2ccccc2)c2ccccc2)=CC1=O", "note": "[SkQ1]", "values": [
      {"measurement": "Decrease of the concentration of SkQ1", "setting": "[1]; absence of benzalkonium chloride, 24 hours", "value": 58, "unit": "%"},
      {"measurement": "Decrease of SkQ1 concentration during storage (in words)", "setting": "[1]; addition of 0.01% benzalkonium chloride, SkQ1 up to 250 nM, 24 hours", "value": "completely prevented; also recorded: prevents a decrease in the concentration"},
      {"measurement": "Determined concentration of SkQ1 in 24 hours", "setting": "[1]; benzalkonium chloride 0 (control) %, added SkQ1 250 nM", "value": 104, "unit": "nM"},
      {"measurement": "Relative content of SkQ1", "setting": "[1]; benzalkonium chloride 0 (control) %, added SkQ1 250 nM, 24 hours", "value": 42, "unit": "%"},
      {"measurement": "Determined concentration of SkQ1 in 24 hours", "setting": "[1]; benzalkonium chloride 0.01%, added SkQ1 50 nM", "value": 56, "unit": "nM"},
      {"measurement": "Relative content of SkQ1", "setting": "[1]; benzalkonium chloride 0.01%, added SkQ1 50 nM, 24 hours", "value": 112, "unit": "%"},
      {"measurement": "Determined concentration of SkQ1 in 24 hours", "setting": "[1]; benzalkonium chloride 0.01%, added SkQ1 100 nM", "value": 97, "unit": "nM"},
      {"measurement": "Relative content of SkQ1", "setting": "[1]; benzalkonium chloride 0.01%, added SkQ1 100 nM, 24 hours", "value": 97, "unit": "%"},
      {"measurement": "Determined concentration of SkQ1 in 24 hours", "setting": "[1]; benzalkonium chloride 0.01%, added SkQ1 180 nM", "value": 180, "unit": "nM"},
      {"measurement": "Relative content of SkQ1", "setting": "[1]; benzalkonium chloride 0.01%, added SkQ1 180 nM, 24 hours", "value": 100, "unit": "%"},
      {"measurement": "Determined concentration of SkQ1 in 24 hours", "setting": "[1]; benzalkonium chloride 0.01%, added SkQ1 250 nM", "value": 254, "unit": "nM"},
      {"measurement": "Relative content of SkQ1", "setting": "[1]; benzalkonium chloride 0.01%, added SkQ1 250 nM, 24 hours", "value": 102, "unit": "%"},
      {"measurement": "Relative content of SkQ1 after incubation for 50 days", "setting": "[2]; 0.2% HPMC", "value": 93, "unit": "%"},
      {"measurement": "Effect of prolongator on SkQ1 concentration during storage (in words)", "setting": "[2]; 0.2% HPMC, 50 days at room temperature", "value": "stabilizes the concentration"},
      {"measurement": "Relative content of SkQ1 after incubation for 50 days", "setting": "[2]; 0.2% MC", "value": 79, "unit": "%"},
      {"measurement": "Relative content of SkQ1 after incubation for 50 days", "setting": "[2]; control (no prolongator)", "value": 83, "unit": "%"}
    ]}
  ]
}
